Laboratory results as given in PMC2813863, “In Vivo Evaluation of α7 Nicotinic Acetylcholine Receptor Agonists [^11C]A-582941 and [^11C]A-844606 in Mice and Conscious Monkeys” (PLoS ONE, 2010).
Several values for one entry are separate records, joined by “and”; a condition that tells them apart may be missing. Equal values may be shown once. Read-outs that look alike come from different tables or passages of the source.

Experiments:
α7 nAChRs [1] = target: α7 nAChRs (Mus musculus, UniProt P49582); details: in vivo
α7 nAChRs (Mus musculus, UniProt P49582), sequence (P49582 23-502): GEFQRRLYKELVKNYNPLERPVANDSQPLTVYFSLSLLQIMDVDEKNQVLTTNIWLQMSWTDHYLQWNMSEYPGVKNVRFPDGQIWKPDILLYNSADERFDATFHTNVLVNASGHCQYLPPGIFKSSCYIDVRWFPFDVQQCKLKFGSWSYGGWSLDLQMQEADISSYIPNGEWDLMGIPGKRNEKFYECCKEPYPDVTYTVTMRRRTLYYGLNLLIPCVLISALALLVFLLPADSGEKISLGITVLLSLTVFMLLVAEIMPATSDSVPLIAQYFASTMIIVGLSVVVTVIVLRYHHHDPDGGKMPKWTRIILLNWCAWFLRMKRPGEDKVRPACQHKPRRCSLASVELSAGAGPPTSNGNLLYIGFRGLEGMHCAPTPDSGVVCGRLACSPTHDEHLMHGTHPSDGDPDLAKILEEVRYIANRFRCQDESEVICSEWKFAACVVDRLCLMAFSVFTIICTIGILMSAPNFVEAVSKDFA
Procedure: In the other group of mice, a blocking experiment to determine the α7 nAChRs-specific regional brain uptake of the tracers was carried out. Each tracer (2 MBq/0.055–0.096 nmol) was co-injected with each of the following blockers into mice, and 15 ([^11C]A-582941) or 30 ([^11C]A-844606) min later the mice were killed (n = 5) and the tissue uptake of ^11C was expressed as the %ID/g. […] Each blocker was dissolved in 1N HCl to 40 mg/ml and diluted up to 0.4 mg/ml with saline. The co-injected dose was 1 mg/kg. In the control mice the same amount of 0.01 N HCl in saline was co-injected.

[2] = mice
Procedure: Each tracer (180 MBq/3.0–13.4 nmol) was intravenously injected into mice, and 15 and 30 min later the animals were killed by cervical dislocation (n = 3). Blood was removed by heart puncture using a heparinized syringe, and the brain was removed. The blood was centrifuged at 7,000×g for 1 min at 4°C to obtain plasma, which was denatured with 5 volume of CH3CN. The mixture was centrifuged under the same conditions, and the precipitate was re-suspended in 0.5 ml of CH3CN, followed by centrifugation. This procedure was repeated three times. The cerebral cortex (approximately 200 mg) was homogenized in 1.0 ml of 50% CH3CN. The homogenate was then treated as described above. The combined supernatant was diluted with 2 volumes of water and then analyzed by HPLC with a radioactivity detector (FLO-ONE 150TR; Packard Instrument, Meriden, CT). A Radial-Pak C18 column equipped with an RCM 8×10 module (8 mm ×100 mm; Waters, Milford, MA) was used with a mixture of CH3CN/H2O/triethyl amine (40/60/0.1 for [^11C]A-582941 and 70/30/0.1 for [^11C]A-844606, v/v/v) as the mobile phase at a flow rate of 2 ml/min. The elution profile was monitored with a radioactivity detector. The retention times of [^11C]A-582941 and [^11C]A-844606 were 6.4 and 8.8 min, respectively. The recovery in the eluate of the injected radioactivity was essentially quantitative.

α7 nAChRs [3] = target: α7 nAChRs (Macaca mulatta, UniProt Q866A2); details: rhesus monkey, in vivo
α7 nAChRs (Macaca mulatta, UniProt Q866A2), sequence (Q866A2 23-502): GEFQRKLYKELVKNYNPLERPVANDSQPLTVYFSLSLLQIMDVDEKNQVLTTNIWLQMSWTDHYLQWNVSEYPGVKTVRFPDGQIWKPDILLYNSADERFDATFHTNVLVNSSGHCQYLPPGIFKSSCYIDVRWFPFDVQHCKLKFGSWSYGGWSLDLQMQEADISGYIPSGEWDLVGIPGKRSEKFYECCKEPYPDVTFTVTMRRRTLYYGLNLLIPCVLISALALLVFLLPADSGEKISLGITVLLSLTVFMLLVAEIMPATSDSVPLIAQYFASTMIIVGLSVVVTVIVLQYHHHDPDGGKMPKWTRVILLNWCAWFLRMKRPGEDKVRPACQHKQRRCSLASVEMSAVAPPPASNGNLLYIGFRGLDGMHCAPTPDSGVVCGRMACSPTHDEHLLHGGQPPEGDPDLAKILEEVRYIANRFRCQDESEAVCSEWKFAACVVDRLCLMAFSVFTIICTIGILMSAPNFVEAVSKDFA
Description: Four young-adult male rhesus monkeys (Macaca mulatta) weighing from 4 to 6 kg were used for PET measurements. The monkeys were trained for the protocol as described previously. The magnetic resonance images (MRI) of all monkeys were obtained with a Toshiba MRT-50A/II (0.5T) under anesthesia with pentobarbital. The stereotactic coordinates of PET and MRI were adjusted based on the orbitomeatal (OM) line with monkeys secured in a specially designed head holder. At least 1 month before the PET study, an acrylic plate, with which the monkey was fixed to the monkey chair, was attached to the head under pentobarbital anesthesia as described previously.
PET data were collected on a high-resolution PET scanner (SHR-7700; Hamamatsu Photonics K.K., Hamamatsu, Japan). The camera consists of 16 detector rings and acquires 20 slices at a center-to-center interval of 3.6 mm with a transaxial resolution of 2.6 mm full width at half maximum. After an overnight fast, the monkey was fixed to the monkey chair with stereotactic coordinates aligned parallel to the OM line. A cannula was implanted in the posterior tibial vein, and [^11C]A-582941 or [^11C]A-844606 (1152–1336 MBq/26.8–63.1 nmol) was injected into the monkey through the venous cannula. PET images were acquired over 91 min (10 sec ×6 frames, 30 sec ×6 frames, 1 min ×12 frames, and 3 min ×25 frames). PET scans were reconstructed using a filtered backprojection method in a 100×100 matrix, with a voxel size of 1.2 mm ×1.2 mm ×3.6 mm. Summed image of late phase (from 70 to 91 min post-injection) was calculated as a static SUV (activity/ml tissue)/(injected activity/g body weight) image. Each MRI was coregistered to an early (from 0 to 20 min) summed image using normalized mutual information, and ROIs were placed on the summed image with reference to the coregistered MRI. Three monkeys underwent [^11C]A-582941 scan morning, and then two of the three monkeys underwent [^11C]A-844606 afternoon (baseline). Within 6 months the last one of the three monkeys underwent two [^11C]A-844606 scans in the baseline (morning) and blocking (afternoon) conditions 30 min after injection of SSR180711 (5.0 mg/kg, i.v.), and the fourth monkey underwent two [^11C]A-582941 scans in the baseline and blocking conditions in the same way.
For the semi-quantitative analysis of PET data, arterial samples were obtained every 8 sec from injection to 64 sec, and then again at 1.5, 2.5, 4, 6, 10, 20, 30, 45, 60, and 90 min after each tracer injection. Blood samples were centrifuged to separate the plasma, weighed, and subjected to radioactivity measurement. For metabolite analysis, methanol was added to some plasma samples, the resulting solutions were centrifuged, and the supernatants were developed with TLC plates (AL SIL G/UV; Whatman, Kent, UK) using a mobile phase of dichloromethane/diethyl ether/ethanol/triethylamine (20/20/2/2, v/v/v/v). At each sampling time point, the ratio of radioactivity in the unmetabolized fraction to that in the total plasma (metabolite plus unmetabolite) was determined using a phosphoimaging plate (BAS-1500 MAC; Fuji Film Co., Tokyo, Japan). The pTACs corrected for metabolite were obtained. The tTACs in each region of interest (ROI) in the brain were calculated as the %ID/ml or as a standardized uptake value (SUV), (activity/ml tissue)/(injected activity/g body weight). Using the tTACs and the metabolite-corrected pTAC, the V T for each tracer was evaluated by Logan graphical analysis.

Which results are given for `[11CH3]N1CC2CN(c3ccc(-c4ccccc4)nn3)CC2C1` (centres unmarked) [[^11C]A-582941, 2-[^11C]Methyl-5-[6-phenylpyridazine-3-yl]octahydropyrrolo[3,4-c]pyrrole]?
% Injected dose/g tissue, Blood (α7 nAChRs [1]): 0.88±0.10 % Injected dose/g tissue; % Injected dose/g tissue, Cerebellum (α7 nAChRs [1]): 3.71±0.19 % Injected dose/g tissue; % Injected dose/g tissue, Cerebral cortex (α7 nAChRs [1]): 4.59±0.25 % Injected dose/g tissue; % Injected dose/g tissue, Hippocampus (α7 nAChRs [1]): 4.05±0.52 % Injected dose/g tissue; % Injected dose/g tissue, Hypothalamus (α7 nAChRs [1]): 3.51±0.60 % Injected dose/g tissue; % Injected dose/g tissue, Medulla oblongata (α7 nAChRs [1]): 4.23±0.08 % Injected dose/g tissue; % Injected dose/g tissue, Midbrain (α7 nAChRs [1]): 4.09±0.52 % Injected dose/g tissue; % Injected dose/g tissue, Striatum (α7 nAChRs [1]): 4.03±0.45 % Injected dose/g tissue; % Injected dose/g tissue, Whole brain (α7 nAChRs [1]): 4.23±0.23 % Injected dose/g tissue; percentage of the unchanged form in the brain ([2]; 15 min after injection): 95.4±1.9%; percentage of the unchanged form in the plasma ([2]; 15 min after injection): 40.5±7.1%; percentage of the unchanged form in the brain ([2]; 30 min after injection): 97.4±0.8%; percentage of the unchanged form in the plasma ([2]; 30 min after injection): 26.8±6.6% and 26.8%; V T Baseline, Cerebellum (α7 nAChRs [3]; male): 25.4 mL/g; V T Baseline, Frontal cortex (α7 nAChRs [3]; male): 34.5 mL/g; V T Baseline, Hippocampus (α7 nAChRs [3]; male): 31.6 mL/g; V T Baseline, Thalamus (α7 nAChRs [3]; male): 34.0 mL/g; V T SSR180711, Cerebellum (α7 nAChRs [3]; male): 17.3 mL/g; V T SSR180711, Frontal cortex (α7 nAChRs [3]; male): 23.0 mL/g; V T SSR180711, Hippocampus (α7 nAChRs [3]; male): 20.4 mL/g; V T SSR180711, Thalamus (α7 nAChRs [3]; male): 23.6 mL/g; V T, cerebellum (mean ± SD) (α7 nAChRs [3]; male): 23.0±3.4; V T, cerebellum (range) (α7 nAChRs [3]; male): 18.0–25.4; V T, frontal cortex (mean ± SD) (α7 nAChRs [3]; male): 29.2±4.7; V T, frontal cortex (range) (α7 nAChRs [3]; male): 23.2–34.5; V T, hippocampus (mean ± SD) (α7 nAChRs [3]; male): 28.0±3.8; V T, hippocampus (range) (α7 nAChRs [3]; male): 22.8–31.6; V T, thalamus (mean ± SD) (α7 nAChRs [3]; male): 30.4±4.1; V T, thalamus (range) (α7 nAChRs [3]; male): 24.6–34.0; time of peak radioactivity in the four brain regions (thalamus, frontal cortex, hippocampus, cerebellum) (α7 nAChRs [3]; male): 10 min; % decrease of V T, Cerebellum (α7 nAChRs [3]): 32.0%; % decrease of V T, Frontal cortex (α7 nAChRs [3]): 33.4%; % decrease of V T, Hippocampus (α7 nAChRs [3]): 35.5%; % decrease of V T, Thalamus (α7 nAChRs [3]): 30.5%; decrease of V T by pretreatment with SSR180711 (α7 nAChRs [3]): ~30%
